Molecules are shown by their SMILES.

Experiment [1] relates to tau. The experiment is described as follows: Tau PET tracer binding, SUVP peak-alignment method and positive binding percentage (PBP), AD patients and NL subjects. Format: in vivo, human. As to conditions: for PBP of SUVP, Basal ganglia / PBP of SUVP, Cerebellar GM / PBP of SUVP, Cerebral GM / PBP of SUVP, Cerebral WM / PBP of SUVP, Frontal cortex / PBP of SUVP, Occipital cortex / PBP of SUVP, Partial cortex / PBP of SUVP, Temporal cortex: SUVP cutoff 1.5; for PBP of SUVP, Basal ganglia / PBP of SUVP, Cerebellar GM / PBP of SUVP, Cerebral GM / PBP of SUVP, Cerebral WM / PBP of SUVP, Frontal cortex / PBP of SUVP, Occipital cortex / PBP of SUVP, Partial cortex / PBP of SUVP, Temporal cortex / mean SUVP in cerebellum GM: mean (SD). The text has this:
The set of standardized uptake values (with repetition) for all voxels within brain region r and subject s may be represented as SUV(r,s). Each of the values of SUV(r,s) may be normalized using a SUVP method represented as follows: SUVP(r,s)=(SUV(r,s)−M)/S, where M corresponds to a peak of the number of counts of emissions events recorded across all of the voxels of the PET image data, and S corresponds to a spread of all of the different counts of emissions events recorded across all of the voxels of the PET image data. Each subject's SUV image may be normalized and transferred into a standardized SUVP, using the standardized uptake value peak-alignment (SUVP) method described herein.
In one particular example, M is the sample mode of rounded SUV(r,s), and S is the standard deviation of SUV(r,s). Furthermore, the peak (M) values, in particular the sample mode of rounded SUV(r,s) may be used as a reference region to normalize raw SUV data using methods similar to SUVR.
In addition, as shown in step 112, a SUVP method may also be used to analyze regional percentages of positive binding in the PET data. Positive binding may be defined based on a predetermined cutoff value. The predetermined cutoff value may be any suitable value that is well above background signal. In some embodiments, the predetermined cutoff value may be manually set by a user. One important advantage of SUVP is that it standardized range of whole brain SUV into a generally fixed range regardless of tracer or disease condition, allowing universal cutoff for different tracers (e.g., 1.5 for all tracers), while SUVR cutoffs are tracer-dependent and varies across different studies (e.g., 1.5 for THK5315 and 1.2 for AV1451). Additionally, as discussed further below in Example I, when SUVP was calculated by using a standard deviation (SD), 1.5 times a SUVP cutoff value is equivalent to 1.5 times SD, which signifies a statistic meaningful way to distinguish and identify positive voxels. The percentage of positive binding (PBP) may be obtained by:
Subjects come from two sources. 18 subjects (9 AD patients, and 9 healthy elderly study participants) underwent ^18F-THK5351 PET scans from the memory clinic of Tohoku University Hospital. ^18F-AV-1451 scans were obtained from the ADNI (Alzheimer's Disease Neuroimaging Initiative) database (adni.loni.usc.edu). 32 Subjects (20 NL and 12 AD) with ^18F-AV-1451 were selected from ADNI, that were matched to the age and MMSE in participants of the THK5351 group.
PET imaging was performed using an Eminence STARGATE PET scanner (Shimadzu, Kyoto, Japan). After intravenous injection of ^18F-THK5351 (185 MBq), dynamic PET images were obtained for 60 min. acquisition matrix is 128×128×79 and voxels size is 2×2×2.6 mm. ^18F-THK5351 was synthesized. MRI was performed on all participants. T1 weighted MR images were obtained using a SIGNA 1.5-Tesla machine (General Electric, Milwaukee, Wis.). In T1-weighted MRI, a 3D volumetric acquisition of a T1-weighted gradient echo sequence produced a gapless series of thin axial sections by using a vascular TOF SPGR sequence (echo time/repetition time, 2.4/50 ms; flip angle, 45°; acquisition matrix, 256×256; 1 excitation; field of view, 22 cm; slice thickness, 2.0 mm).
AV-1451 data were downloaded from ADNI with series description “AV1451 Coreg, Avg, Std Img and Vox Siz, Uniform Resolution”. An intravenous injection of 10 mCi ^18F-AV-1451 (370 MBq) is followed by a saline flush. At approximately 75 minutes following injection, a continuous 30-minute brain scan (6 frames of 5-minute duration) was performed after a CT or transmission scan for attenuation correction. PET imaging was performed using GEMINI TF TOF 16 (Philips Medical Systems), with 6 frames; acquisition matrix 128×128×90; pixel spacing 2×2 mm; slice thickness 2 mm. […]

For experiment [2], the system named is tau. Briefly: Example II: global and regional tau binding by SUVR, PERSI and SUVP, 42 NL and 22 AD. Format: in vivo, human. As to conditions: with SUVR, 64 subjects. The source says:
Example II, as discussed below, provides an exemplary embodiment comparing tau PET uptake quantification methods based on a 18F-AV-1451 tracer. Quantitative measurement of tau bindings from PET tracers (such as AV1451) is crucial in the PET-based study of tauopathies (such as Alzheimer's). The standardized uptake value ratio (SUVR) method has been challenged by the off-target binding in reference region. An unbiased tau binding quantification may be achieved via several different methods, including the Parametric Estimate of Reference Signal Intensity (PERSI) method by Avid Radiopharmaceutical and standardized uptake value peak-alignment (SUVP) method. In Example II, we compared the sensitivity of SUVR, PERSI and SUVP methods on the same PET dataset, in both global and local regions.
Using SUVR, PERSI, and SUVP, we evaluated the global and regional tau binding of 18F-AV-1451 on 64 subjects, with 42 cognitively normal (NL) and 22 Alzheimer's disease (AD), and compared the group differences of tau binding under the three different methods. Cerebral cortex was used as ROI for global binding test. The average SUVP value in ROIs is computed by averaging all positive SUVP values (SUVP>0) within the ROI, and positive binding percentage (PBP) for SUVP is defined as the ratio of voxel number with SUVP>1.5 over the total voxel number within the ROI.

As to `[18F]c1ccc(-c2ccc3c(c2)[nH]c2ccncc23)cn1` [AV-1451], in the experiment with tau [1] (AD patients), the “PBP of SUVP, Basal ganglia” value was 18.55(12.28)^; the “PBP of SUVP, Cerebellar GM” value is reported as “.90(1.46)”; the “PBP of SUVP, Cerebral GM” value is 9.4(10.83)^+; the “PBP of SUVP, Cerebral WM” value is on record as 7.86(7.44)^+. Also, in the experiment on tau [1] (AD patients), the “PBP of SUVP, Frontal cortex” value is 5.32(7.70)^; the “PBP of SUVP, Occipital cortex” value is 5.59(8.23)^+; the “PBP of SUVP, Partial cortex” value was 10.2(15.2)^+; the “PBP of SUVP, Temporal cortex” value was 20.72(20.48)*^+. Also, the “mean SUVP in cerebellum GM” value with tau [1] (AD patients) is −0.73(0.43). In addition, the “increase of cerebellar GM SUVP in AD comparing to NL” value with tau [1] (AD vs NL) turned out to be 37%. In the experiment with tau [1] (NL subjects), the “PBP of SUVP, Basal ganglia” value is given as 28.14(11.42); the “PBP of SUVP, Cerebellar GM” value was “.83(1.45)”; the “PBP of SUVP, Cerebral GM” value was 1.85(3.24); the “PBP of SUVP, Cerebral WM” value was 2.65(3.64). Further, in the experiment on tau [1] (NL subjects), the “PBP of SUVP, Frontal cortex” value is listed as 0.78(1.43); the “PBP of SUVP, Occipital cortex” value was 0.54(1.58); the “PBP of SUVP, Partial cortex” value is given as 0.95(3.21); the “PBP of SUVP, Temporal cortex” value is recorded as 5.44(11.10). In addition, the “mean SUVP in cerebellum GM” value in the experiment on tau [1] (NL subjects) is listed as −1.00(0.45). Further, in the experiment with tau [2], the “tau binding, AD subjects versus cognitively normal NL subjects” value is “significantly higher tau binding”.
Regarding `CNc1ccc(-c2ccc3cc(OC[C@H](O)CF)ccc3n2)cn1` [THK5351], in the experiment with tau [1] (AD patients), the “PBP of SUVP, Basal ganglia” value is 61.93(7.25); the “PBP of SUVP, Cerebellar GM” value is listed as “.07(.10)”; the “PBP of SUVP, Cerebral GM” value is 5.56(1.47); the “PBP of SUVP, Cerebral WM” value is given as 8.70(3.24). Also, in the experiment with tau [1] (AD patients), the “PBP of SUVP, Frontal cortex” value is recorded as 1.25(0.86)^; the “PBP of SUVP, Occipital cortex” value is given as 1.73(2.79)^; the “PBP of SUVP, Partial cortex” value is 2.16(3.33)^+; the “PBP of SUVP, Temporal cortex” value is recorded as 17.94(5.15)*^+. In the experiment on tau [1] (AD patients), the “mean SUVP in cerebellum GM” value was −1.24(0.24). In addition, the “decrease of cerebellum GM SUVP in AD comparing to NL” value with tau [1] (AD vs NL) is listed as 2.5%. Also, in the experiment on tau [1] (NL subjects), the “PBP of SUVP, Basal ganglia” value is reported as 81.24(8.55)^++; the “PBP of SUVP, Cerebellar GM” value is listed as “.10(.14)”; the “PBP of SUVP, Cerebral GM” value is 3.81(2.19); the “PBP of SUVP, Cerebral WM” value is reported as 7.06(1.55). Further, in the experiment on tau [1] (NL subjects), the “PBP of SUVP, Frontal cortex” value is 2.37(1.25)^+; the “PBP of SUVP, Occipital cortex” value is reported as 0.05(0.09); the “PBP of SUVP, Partial cortex” value is 0.17(0.21); the “PBP of SUVP, Temporal cortex” value is reported as 6.93(4.78). The “mean SUVP in cerebellum GM” value with tau [1] (NL subjects) is listed as −1.21(0.28).

These data come from patent publication US10945685B2, “System and method for normalizing standardized uptake values in brain positron emission tomography (PET) images” (New York University, priority 2018, dated 2021).
